Values of other authors as cited in patent US5534537A, “Prodrugs of inhibitors of farnesyl-protein transferase” (Merck & Co., Inc., priority 1995, dated 1996).

Tested on: farnesyl-protein transferase
Conditions: via inhibition of HMG-CoA reductase, literature (Hancock et al.; Casey et al.; Schafer et al.)

| Compound | Indirect inhibition of farnesyl-protein transferase in vivo |
| --- | --- |
| CC[C@H](C)C(=O)O[C@H]1CCC=C2C=C[C@H](C)[C@H](CC[C@@H]3C[C@@H](O)CC(=O)O3)[C@H]21 [compactin] | Indirect inhibition |
| CC[C@H](C)C(=O)O[C@H]1C[C@@H](C)C=C2C=C[C@H](C)[C@H](CC[C@@H]3C[C@@H](O)CC(=O)O3)[C@H]21 [lovastatin] | Indirect inhibition |
